Laboratory results: PubChem BioAssay AID1259407 (Chemical Carcinogenesis Research Information System (CCRIS), 2018)
Active and inactive are the calls of the source. How the calls were made is not given here.

Tested on: CCRIS mutagenicity, Ames/micronucleus/aberration tests
Assay: CCRIS mutagenicity studies
[1] = Test System: AMES SALMONELLA TYPHIMURIUM, Strain/Indicator: TA98, Metabolic Activation: HAMSTER, LIVER, S-9, AROCLOR 1254, Method: PREINCUBATION
[2] = Test System: AMES SALMONELLA TYPHIMURIUM, Strain/Indicator: TA98, Metabolic Activation: NONE, Method: PREINCUBATION
[3] = Test System: AMES SALMONELLA TYPHIMURIUM, Strain/Indicator: TA98, Metabolic Activation: RAT, LIVER, S-9, AROCLOR 1254, Method: PREINCUBATION
[4] = Test System: AMES SALMONELLA TYPHIMURIUM, Strain/Indicator: TA100, Metabolic Activation: HAMSTER, LIVER, S-9, AROCLOR 1254, Method: PREINCUBATION
[5] = Test System: AMES SALMONELLA TYPHIMURIUM, Strain/Indicator: TA100, Metabolic Activation: NONE, Method: PREINCUBATION
[6] = Test System: AMES SALMONELLA TYPHIMURIUM, Strain/Indicator: TA100, Metabolic Activation: RAT, LIVER, S-9, AROCLOR 1254, Method: PREINCUBATION
[7] = Test System: AMES SALMONELLA TYPHIMURIUM, Strain/Indicator: TA1535, Metabolic Activation: HAMSTER, LIVER, S-9, AROCLOR 1254, Method: PREINCUBATION
[8] = Test System: AMES SALMONELLA TYPHIMURIUM, Strain/Indicator: TA1535, Metabolic Activation: NONE, Method: PREINCUBATION
[9] = Test System: AMES SALMONELLA TYPHIMURIUM, Strain/Indicator: TA1535, Metabolic Activation: RAT, LIVER, S-9, AROCLOR 1254, Method: PREINCUBATION
[10] = Test System: AMES SALMONELLA TYPHIMURIUM, Strain/Indicator: TA1537, Metabolic Activation: NONE, Method: PREINCUBATION
[11] = Test System: AMES SALMONELLA TYPHIMURIUM, Strain/Indicator: TA1537, Metabolic Activation: RAT, LIVER, S-9, AROCLOR 1254, Method: PREINCUBATION
[12] = Test System: AMES SALMONELLA TYPHIMURIUM, Strain/Indicator: TA98, Metabolic Activation: NONE, Method: STANDARD PLATE
[13] = Test System: AMES SALMONELLA TYPHIMURIUM, Strain/Indicator: TA100, Metabolic Activation: NONE, Method: STANDARD PLATE

| SMILES | mutagenic call [1] | mutagenic call [2] | mutagenic call [3] | mutagenic call [4] | mutagenic call [5] | mutagenic call [6] | mutagenic call [7] | mutagenic call [8] | mutagenic call [9] | mutagenic call [10] | mutagenic call [11] | mutagenic call [12] | mutagenic call [13] | further results |
| --- | --- | --- | --- | --- | --- | --- | --- | --- | --- | --- | --- | --- | --- | --- |
| ClCC(Cl)CCl | inactive; negative | inactive; negative | inactive; negative | active; positive | inactive; negative | active; positive | active; positive | inactive; negative | active; positive | inactive; negative | inactive; negative | – | – | mutagenic call (End Point: IN VITRO CHROMOSOMAL ABERRATIONS, Test System: CHL CELLS, Metabolic Activation: NONE): inactive; negative; mutagenic call (End Point: IN VITRO CHROMOSOMAL ABERRATIONS, Test System: CHL CELLS, Metabolic Activation: RAT, LIVER, S-9, SODIUM PHENOBARBITAL AND 5,6-BENZOFLAVONE): active; positive (structural changes); mutagenic call (Test System: AMES SALMONELLA TYPHIMURIUM, Strain/Indicator: TA97, Metabolic Activation: HAMSTER, LIVER, S-9, AROCLOR 1254 (10%), Method: PREINCUBATION): active; positive; mutagenic call (Test System: AMES SALMONELLA TYPHIMURIUM, Strain/Indicator: TA97, Metabolic Activation: NONE, Method: PREINCUBATION): inactive; negative; mutagenic call (Test System: AMES SALMONELLA TYPHIMURIUM, Strain/Indicator: TA97, Metabolic Activation: RAT, LIVER, S-9, AROCLOR 1254 (10%), Method: PREINCUBATION): active; positive; mutagenic call (Test System: AMES SALMONELLA TYPHIMURIUM, Strain/Indicator: TA98, Metabolic Activation: HAMSTER, LIVER, S-9, AROCLOR 1254 (10%), Method: PREINCUBATION): active; positive; mutagenic call (Test System: AMES SALMONELLA TYPHIMURIUM, Strain/Indicator: TA100, Metabolic Activation: HAMSTER, LIVER, S-9, AROCLOR 1254 (10%), Method: PREINCUBATION): active; positive; mutagenic call (Test System: AMES SALMONELLA TYPHIMURIUM, Strain/Indicator: TA100, Metabolic Activation: RAT, LIVER, MICROSOMES, PHENOBARBITAL, NADPH COFACTORS, Method: STANDARD PLATE): active; positive; mutagenic call (Test System: AMES SALMONELLA TYPHIMURIUM, Strain/Indicator: TA100, Metabolic Activation: RAT, LIVER, MICROSOMES, PHENOBARBITAL, Method: STANDARD PLATE): inactive; negative; mutagenic call (Test System: AMES SALMONELLA TYPHIMURIUM, Strain/Indicator: TA100, Metabolic Activation: RAT, LIVER, S-9, AROCLOR 1254 (10%), Method: PREINCUBATION): active; positive; mutagenic call (Test System: AMES SALMONELLA TYPHIMURIUM, Strain/Indicator: TA1535, Metabolic Activation: HAMSTER, LIVER, S-9, AROCLOR 1254 (10%), Method: PREINCUBATION): active; positive; mutagenic call (Test System: AMES SALMONELLA TYPHIMURIUM, Strain/Indicator: TA1535, Metabolic Activation: RAT, LIVER, S-9, AROCLOR 1254 (10%), Method: PREINCUBATION): active; positive; mutagenic call (Test System: AMES SALMONELLA TYPHIMURIUM, Strain/Indicator: TA1537, Metabolic Activation: HAMSTER, LIVER, S-9, AROCLOR 1254 (10%), Method: PREINCUBATION): inactive; negative; mutagenic call (Test System: AMES SALMONELLA TYPHIMURIUM, Strain/Indicator: TA1537, Metabolic Activation: RAT, LIVER, S-9, AROCLOR 1254 (10%), Method: PREINCUBATION): inactive; negative; mutagenic call (Test System: MOUSE LYMPHOMA, Strain/Indicator: L5178Y (TK+/TK-), Metabolic Activation: NONE, Method: SUSPENSION/PLATE): inactive; negative; mutagenic call (Test System: MOUSE LYMPHOMA, Strain/Indicator: L5178Y (TK+/TK-), Metabolic Activation: RAT, LIVER, S-9, AROCLOR 1254, Method: SUSPENSION/PLATE): active; positive |
| CCn1c2ccccc2c2cc(N)ccc21 | active; positive | inactive; negative | active; positive | active; positive | inactive; negative | active; positive | inactive; negative | inactive; negative | inactive; negative | inactive; negative | active; positive | – | – | mutagenic call (Test System: AMES SALMONELLA TYPHIMURIUM, Strain/Indicator: TA1537, Metabolic Activation: HAMSTER, LIVER, S-9, AROCLOR 1254, Method: PREINCUBATION): active; positive |
| OCc1ccc2c3c(cccc13)-c1ccccc1-2 | – | – | – | – | – | – | – | – | – | – | – | inactive; negative | inactive; negative | – |
| O=C(O)c1cc(Br)cc2cccnc12 | – | – | – | – | – | – | – | – | – | – | – | inactive; negative | inactive; negative | mutagenic call (Test System: AMES SALMONELLA TYPHIMURIUM, Strain/Indicator: TA98, Metabolic Activation: RAT, LIVER, S-9, AROCLOR 1254, Method: STANDARD PLATE): inactive; negative; mutagenic call (Test System: AMES SALMONELLA TYPHIMURIUM, Strain/Indicator: TA100, Metabolic Activation: RAT, LIVER, S-9, AROCLOR 1254, Method: STANDARD PLATE): inactive; negative; mutagenic call (Test System: AMES SALMONELLA TYPHIMURIUM, Strain/Indicator: TA1535, Metabolic Activation: NONE, Method: STANDARD PLATE): inactive; negative; mutagenic call (Test System: AMES SALMONELLA TYPHIMURIUM, Strain/Indicator: TA1535, Metabolic Activation: RAT, LIVER, S-9, AROCLOR 1254, Method: STANDARD PLATE): inactive; negative; mutagenic call (Test System: AMES SALMONELLA TYPHIMURIUM, Strain/Indicator: TA1537, Metabolic Activation: NONE, Method: STANDARD PLATE): inactive; negative; mutagenic call (Test System: AMES SALMONELLA TYPHIMURIUM, Strain/Indicator: TA1537, Metabolic Activation: RAT, LIVER, S-9, AROCLOR 1254, Method: STANDARD PLATE): inactive; negative |
| ClC[C@H]1CO1 | – | – | – | – | active; positive | – | – | – | – | – | – | – | active; positive | mutagenic call (Test System: AMES SALMONELLA TYPHIMURIUM, Strain/Indicator: TA100, Metabolic Activation: RAT, LIVER, S-9, PCB, Method: PREINCUBATION): active; positive |
